One molecule from PubChem BioAssay AID588598 (Sanford-Burnham Center for Chemical Genomics, 2011) can be followed below.

pIC50: −log10 of the molar value.

This assay has as its target Sentrin-specific protease 6 (Homo sapiens) (UniProt Q9GZR1). Kind of assay: inhibition of human SENP6 catalytic domain – biochemical, luminescence, set 2, SAR follow-up (AID 588598). The settings on record: recombinant SENP6, Z-RLRGG-aminoluciferin cleavage, 30 min.

Chain of Sentrin-specific protease 6 (Homo sapiens) (Q9GZR1 628-1112 limits assumed): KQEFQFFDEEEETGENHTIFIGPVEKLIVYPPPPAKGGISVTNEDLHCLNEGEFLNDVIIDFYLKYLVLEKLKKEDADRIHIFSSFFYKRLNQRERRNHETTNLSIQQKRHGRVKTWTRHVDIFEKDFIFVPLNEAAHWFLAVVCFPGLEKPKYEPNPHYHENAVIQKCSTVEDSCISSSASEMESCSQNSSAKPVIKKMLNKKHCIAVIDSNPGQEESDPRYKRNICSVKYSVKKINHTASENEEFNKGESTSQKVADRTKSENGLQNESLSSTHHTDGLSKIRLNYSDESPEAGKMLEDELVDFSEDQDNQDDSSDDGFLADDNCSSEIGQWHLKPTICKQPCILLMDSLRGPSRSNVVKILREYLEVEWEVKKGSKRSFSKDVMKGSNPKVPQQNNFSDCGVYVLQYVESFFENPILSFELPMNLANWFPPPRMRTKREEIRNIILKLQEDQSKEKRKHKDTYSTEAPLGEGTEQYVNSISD

Turning to `O=C(Nc1nc2ccc(Cl)cc2s1)c1cccs1`, the pIC50 was 5.89.

What is called pIC50 is the negative decadic logarithm of the IC50, by convention in mol/L.
